Data: EP2987533B1, “7-substituted piperazin-1-yl fluoroquinolone compounds, their use in the treatment of cancer, pharmaceutical compositions and a method for preparation” (priority 2014, dated 2016)

Legend:
[1] = tested on: leukemia; assay: NCI five-dose SRB assay, subpanel average; details: 48 h; for GI50 / CC50: Homo sapiens; for GI50: read-out: GI50 (median growth inhibitory); for CC50: read-out: LC50 (median lethal); for TGI (total growth inhibitory): average over leukemia subpanel, five concentrations
[2] = tested on: prostate cancer; assay: NCI five-dose SRB assay, subpanel average; details: 48 h; for GI50 / CC50: Homo sapiens; for GI50: read-out: GI50 (median growth inhibitory); for CC50: read-out: LC50 (median lethal); for TGI (total growth inhibitory): average over prostate cancer subpanel, five concentrations
[3] = tested on: SK-OV-3; assay: NCI one-dose SRB growth assay; type: cell-based; details: Homo sapiens; SK-OV-3 (Ovarian Cancer), 10^-5 M, 48 h; read-out: % Growth Inhibition (GI %)
Experimental: (§1) A primary anticancer assay was performed for an approximately 60 human tumor cell line panel derived from nine neoplastic diseases, in accordance with the protocol of the Drug Evaluation Branch, National Cancer Institute, Bethesda, MD (Monks A. et al., J. Natl. Cancer Inst 1991, 83, 757-766; Boyd M.R. and Paull K.D., Drug. Dev. Res. 1995, 34, 91-109; Shoemaker R.H., Nat. Rev. Cancer 2006, 6, 813-823). Briefly, tested compounds were added to the culture at a single concentration (10^-5M), and the cultures were incubated for 48 h. End point determinations were made with a protein binding dye, sulforhodamine B (SRB). The results for each tested compound were reported as the growth percentage of the treated cells when compared to that of the untreated control cells. The percentage growth was evaluated spectrophotometrically versus controls not treated with test agents.

[4] = tested on: COLO 205; assay: NCI one-dose SRB growth assay; type: cell-based; details: Homo sapiens; COLO 205 (Colon Cancer), 10^-5 M, 48 h; read-out: % Growth Inhibition (GI %)
Experimental: as §1

[5] = tested on: MCF7; assay: NCI one-dose SRB growth assay; type: cell-based; details: Homo sapiens; MCF7 (Breast Cancer), 10^-5 M, 48 h; read-out: % Growth Inhibition (GI %)
Experimental: as §1

[6] = tested on: SR; assay: NCI one-dose SRB growth assay; type: cell-based; details: Homo sapiens; SR (Leukemia), 10^-5 M, 48 h; read-out: % Growth Inhibition (GI %)
Experimental: as §1

[7] = tested on: HOP-62; assay: NCI one-dose SRB growth assay; type: cell-based; details: Homo sapiens; HOP-62 (Non-Small Cell Lung Cancer), 10^-5 M, 48 h; read-out: % Growth Inhibition (GI %)
Experimental: as §1

[8] = tested on: PC-3; assay: NCI one-dose SRB growth assay; type: cell-based; details: Homo sapiens; PC-3 (Prostate Cancer), 10^-5 M, 48 h; read-out: % Growth Inhibition (GI %)
Experimental: as §1

[9] = tested on: SW-620; assay: NCI one-dose SRB growth assay; type: cell-based; details: Homo sapiens; SW-620 (Colon Cancer), 10^-5 M, 48 h; read-out: % Growth Inhibition (GI %)
Experimental: as §1

[10] = tested on: HT29; assay: NCI one-dose SRB growth assay; type: cell-based; details: Homo sapiens, HT-29; HT29 (Colon Cancer), 10^-5 M, 48 h; read-out: % Growth Inhibition (GI %)
Experimental: as §1

[11] = tested on: A549/ATCC; assay: NCI one-dose SRB growth assay; type: cell-based; details: Homo sapiens; A549/ATCC (Non-Small Cell Lung Cancer), 10^-5 M, 48 h; read-out: % Growth Inhibition (GI %)
Experimental: as §1

[12] = tested on: NCI-H226; assay: NCI one-dose SRB growth assay; type: cell-based; details: Homo sapiens; NCI-H226 (Non-Small Cell Lung Cancer), 10^-5 M, 48 h; read-out: % Growth Inhibition (GI %)
Experimental: as §1

[13] = tested on: SK-MEL-28; assay: NCI one-dose SRB growth assay; type: cell-based; details: Homo sapiens; SK-MEL-28 (Melanoma), 10^-5 M, 48 h; read-out: % Growth Inhibition (GI %)
Experimental: as §1

[14] = tested on: T-47D; assay: NCI one-dose SRB growth assay; type: cell-based; details: Homo sapiens, T47D; T-47D (Breast Cancer), 10^-5 M, 48 h; read-out: % Growth Inhibition (GI %)
Experimental: as §1

[15] = tested on: LOX IMVI; assay: NCI one-dose SRB growth assay; type: cell-based; details: Homo sapiens; LOX IMVI (Melanoma), 10^-5 M, 48 h; read-out: % Growth Inhibition (GI %)
Experimental: as §1

[16] = tested on: KM12; assay: NCI one-dose SRB growth assay; type: cell-based; details: Homo sapiens; KM12 (Colon Cancer), 10^-5 M, 48 h; read-out: % Growth Inhibition (GI %)
Experimental: as §1

[17] = tested on: HCT-116; assay: NCI one-dose SRB growth assay; type: cell-based; details: Homo sapiens; HCT-116 (Colon Cancer), 10^-5 M, 48 h; read-out: % Growth Inhibition (GI %)
Experimental: as §1

[18] = tested on: BT-549; assay: NCI one-dose SRB growth assay; type: cell-based; details: Homo sapiens; BT-549 (Breast Cancer), 10^-5 M, 48 h; read-out: % Growth Inhibition (GI %)
Experimental: as §1

[19] = tested on: MDA-MB-435; assay: NCI one-dose SRB growth assay; type: cell-based; details: Homo sapiens; MDA-MB-435 (Melanoma), 10^-5 M, 48 h; read-out: % Growth Inhibition (GI %)
Experimental: as §1

[20] = tested on: U251; assay: NCI one-dose SRB growth assay; type: cell-based; details: Homo sapiens, U-251; U251 (CNS Cancer), 10^-5 M, 48 h; read-out: % Growth Inhibition (GI %)
Experimental: as §1

[21] = tested on: IGROV1; assay: NCI one-dose SRB growth assay; type: cell-based; details: Homo sapiens, IGROV-1; IGROV1 (Ovarian Cancer), 10^-5 M, 48 h; read-out: % Growth Inhibition (GI %)
Experimental: as §1

[22] = tested on: MOLT-4; assay: NCI one-dose SRB growth assay; type: cell-based; details: Homo sapiens; MOLT-4 (Leukemia), 10^-5 M, 48 h; read-out: % Growth Inhibition (GI %)
Experimental: as §1

[23] = tested on: NCI/ADR-RES; assay: NCI one-dose SRB growth assay; type: cell-based; details: Homo sapiens; NCI/ADR-RES (Ovarian Cancer), 10^-5 M, 48 h; read-out: % Growth Inhibition (GI %)
Experimental: as §1

[24] = tested on: SF-295; assay: NCI one-dose SRB growth assay; type: cell-based; details: Homo sapiens; SF-295 (CNS Cancer), 10^-5 M, 48 h; read-out: % Growth Inhibition (GI %)
Experimental: as §1

[25] = tested on: CNS cancer; assay: NCI five-dose SRB assay, subpanel average; details: 48 h; for GI50 / CC50: Homo sapiens; for GI50: read-out: GI50 (median growth inhibitory); for CC50: read-out: LC50 (median lethal); for TGI (total growth inhibitory): average over CNS cancer subpanel, five concentrations
[26] = tested on: breast cancer; assay: NCI five-dose SRB assay, subpanel average; details: 48 h; for GI50 / CC50: Homo sapiens; for GI50: read-out: GI50 (median growth inhibitory); for CC50: read-out: LC50 (median lethal); for TGI (total growth inhibitory): average over breast cancer subpanel, five concentrations

SMILES	GI50 [1]	CC50 [1]	TGI (total growth inhibitory) [1]	GI50 [2]	CC50 [2]	TGI (total growth inhibitory) [2]	inhibition at 10 µM [3]	inhibition at 10 µM [4]	inhibition at 10 µM [5]	inhibition at 10 µM [6]	inhibition at 10 µM [7]	inhibition at 10 µM [8]	inhibition at 10 µM [9]	inhibition at 10 µM [10]	inhibition at 10 µM [11]	inhibition at 10 µM [12]	inhibition at 10 µM [13]	inhibition at 10 µM [14]	inhibition at 10 µM [15]	inhibition at 10 µM [16]	further results
O=C(O)c1cn(C2CC2)c2cc(N3CCN(S(=O)(=O)c4ccc(Cl)c(Cl)c4)CC3)c(F)cc2c1=O [Compound 3b]	3.02 µM	> 100 µM	62.55 µM	3.29 µM	> 100 µM	c (Compounds showed values > 100µM)	73.2%	> 100%	86.5%	> 100%	84.8%	83.8%	79.3%	99.7%	94%	58.6%	51.5%	83.7%	98.8%	85.4%	inhibition at 10 µM [17]: 96%; inhibition at 10 µM [18]: > 100%; inhibition at 10 µM [19]: 87%; inhibition at 10 µM [20]: 87.6%; inhibition at 10 µM [21]: 70.7%; inhibition at 10 µM [22]: 96.6%; inhibition at 10 µM [23]: 46.5%; inhibition at 10 µM [24]: > 100%; GI50 [25]: 3.68 µM; CC50 [25]: > 100 µM; TGI (total growth inhibitory) [25]: c (Compounds showed values > 100µM); GI50 [26]: 3.04 µM; CC50 [26]: > 100 µM; TGI (total growth inhibitory) [26]: 81.37 µM
CCn1cc(C(=O)O)c(=O)c2cc(F)c(N3CCN(S(=O)(=O)c4cccc5ccccc45)CC3)cc21 [Compound 7a]	3.48 µM	> 100 µM	63.22 µM	3.71 µM	> 100 µM	c (Compounds showed values > 100µM)	84.4%	> 100%	85.4%	97.8%	84.9%	92.2%	77.2%	96%	96.2%	78.1%	40.8%	94.7%	> 100%	88.3%	inhibition at 10 µM [17]: 94.5%; inhibition at 10 µM [18]: > 100%; inhibition at 10 µM [19]: 88.6%; inhibition at 10 µM [20]: 85.8%; inhibition at 10 µM [21]: 86.3%; inhibition at 10 µM [22]: 91.6%; inhibition at 10 µM [23]: 78.7%; inhibition at 10 µM [24]: 92.3%; GI50 [25]: 3.09 µM; CC50 [25]: > 100 µM; TGI (total growth inhibitory) [25]: 63.40 µM; GI50 [26]: 2.81 µM; CC50 [26]: > 100 µM; TGI (total growth inhibitory) [26]: 38.49 µM
